Active and inactive are the calls of the source. The rule behind the calls is not given here.
Experiments:
D(2) dopamine receptor = D(2) dopamine receptor (Homo sapiens, UniProt P14416)
Description: Binding affinity to dopamine D2 receptor (unknown origin)

[1] = target: 5-hydroxytryptamine receptor 2A (Homo sapiens, UniProt P28223)
Description: Binding affinity to 5HT2A receptor (unknown origin)

Mus musculus [2] = experiment: Antipsychotic-like activity in sc dosed NMRI mouse assessed as reduction in MK801-induced locomotor activity dosed 15 to 30 mins before administration of MK801 measured for 60 mins; assay type: functional; conditions: read-out: MED
Mus musculus [3] = experiment: Toxicity in NMRI mouse assessed as induction of catalepsy at 30 mg/kg, sc dosed 30 mins before test; assay type: organism-based; parameters: dose 30 mg/kg, route subcutaneous; conditions: in vivo, 0.5 h
D(3) dopamine receptor [4] = target: T1, D(3) dopamine receptor (Homo sapiens, UniProt P35462)
T1 sequence (P35462 whole entry): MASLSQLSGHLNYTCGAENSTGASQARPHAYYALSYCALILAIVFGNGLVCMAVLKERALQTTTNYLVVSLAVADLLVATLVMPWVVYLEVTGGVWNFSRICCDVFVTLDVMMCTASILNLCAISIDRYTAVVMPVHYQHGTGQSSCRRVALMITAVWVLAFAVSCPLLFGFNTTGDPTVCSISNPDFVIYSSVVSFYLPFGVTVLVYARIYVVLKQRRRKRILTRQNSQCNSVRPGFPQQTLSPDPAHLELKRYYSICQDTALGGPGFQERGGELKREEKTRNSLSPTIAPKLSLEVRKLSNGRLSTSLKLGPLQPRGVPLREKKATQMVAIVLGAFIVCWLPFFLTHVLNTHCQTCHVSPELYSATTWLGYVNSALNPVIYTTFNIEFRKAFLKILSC
Description: Binding affinity to dopamine D3 receptor (unknown origin)

[5] = target: T2, 5-hydroxytryptamine receptor 1A (Homo sapiens, UniProt P08908)
T2 sequence (P08908 whole entry): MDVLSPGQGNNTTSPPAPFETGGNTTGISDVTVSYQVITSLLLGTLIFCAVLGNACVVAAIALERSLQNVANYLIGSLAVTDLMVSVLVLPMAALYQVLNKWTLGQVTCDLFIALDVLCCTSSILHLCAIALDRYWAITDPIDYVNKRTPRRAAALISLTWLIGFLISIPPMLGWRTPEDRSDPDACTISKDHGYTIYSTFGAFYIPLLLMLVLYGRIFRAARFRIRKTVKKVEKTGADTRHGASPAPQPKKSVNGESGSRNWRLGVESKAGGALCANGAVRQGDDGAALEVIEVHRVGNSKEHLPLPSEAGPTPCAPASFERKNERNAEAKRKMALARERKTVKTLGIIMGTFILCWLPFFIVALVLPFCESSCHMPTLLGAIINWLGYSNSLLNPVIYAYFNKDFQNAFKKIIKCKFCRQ
Description: Binding affinity to 5HT1A receptor (unknown origin)

[6] = target: T3, 5-hydroxytryptamine receptor 2C (Homo sapiens, UniProt P28335)
T3 sequence (P28335 whole entry): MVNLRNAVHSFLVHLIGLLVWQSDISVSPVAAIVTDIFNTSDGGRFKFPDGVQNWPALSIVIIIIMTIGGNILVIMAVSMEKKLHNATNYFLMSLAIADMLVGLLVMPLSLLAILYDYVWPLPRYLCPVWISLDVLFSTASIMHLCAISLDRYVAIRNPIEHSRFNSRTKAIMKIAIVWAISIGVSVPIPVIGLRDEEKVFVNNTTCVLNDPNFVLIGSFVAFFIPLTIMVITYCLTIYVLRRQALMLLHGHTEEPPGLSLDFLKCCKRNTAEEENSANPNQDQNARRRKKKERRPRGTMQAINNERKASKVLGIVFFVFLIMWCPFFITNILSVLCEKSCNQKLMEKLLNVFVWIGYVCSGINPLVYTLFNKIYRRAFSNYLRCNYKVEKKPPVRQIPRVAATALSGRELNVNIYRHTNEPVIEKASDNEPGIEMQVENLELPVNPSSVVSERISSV
Description: Binding affinity to 5HT2C receptor (unknown origin)

Mus musculus [7] = species: Mus musculus; conditions: in vivo, sc, 0.5 h
Description: Effect on spontaneous exploratory locomotor activity in sc dosed NMRI mouse measured for 30 mins with activity counts each 5 mins

Mus musculus [8] = species: Mus musculus; experiment: animal or person; conditions: NMRI, sc, read-out: MED
Description: Antipsychotic-like activity in sc dosed NMRI mouse assessed as reduction in methamphetamine-induced locomotor activity dosed 15 to 30 mins before administration of methamphetamine measured for 60 mins

Mus musculus [9] = species: Mus musculus; experiment: animal or person; conditions: NMRI, sc, read-out: MED; remark: listed apart in the source
Description: Antipsychotic-like activity in sc dosed NMRI mouse assessed as reduction in PCP-induced locomotor activity dosed 15 to 30 mins before administration of methamphetamine measured for 60 mins

Mus musculus [10] = experiment: Effect on spontaneous exploratory locomotor activity in orally dosed NMRI mouse measured for 30 mins with activity counts each 5 mins; assay type: ADME, organism-based; conditions: in vivo, po, 0.5 h
Mus musculus [11] = experiment: Antipsychotic-like activity in orally dosed NMRI mouse assessed as reduction in MK801-induced locomotor activity dosed 15 to 30 mins before administration of MK801 measured for 60 mins; assay type: functional; conditions: po, read-out: MED
Mus musculus [12] = experiment: Toxicity in NMRI mouse assessed as induction of sedation at 10 and 30 mg/kg, sc dosed 30 mins before test; assay type: organism-based; parameters: dose 30 mg/kg, route subcutaneous; conditions: in vivo, 0.5 h
Mus musculus [13] = experiment: Toxicity in NMRI mouse assessed as induction of tremors at 30 mg/kg, sc dosed 30 mins before test; assay type: organism-based; parameters: dose 30 mg/kg, route subcutaneous; conditions: in vivo, 0.5 h
Rattus norvegicus [14] = experiment: Reduction in blood pressure in anaesthetized rat at 10 mg/kg, iv; assay type: functional, organism-based; parameters: dose 10 mg/kg
Rattus norvegicus [15] = experiment: Increase in heart rate in anaesthetized rat at 10 mg/kg, iv; assay type: functional, organism-based; parameters: dose 10 mg/kg
D(3) dopamine receptor [16] = target: T1, D(3) dopamine receptor; experiment: Agonist activity at human dopamine D3 receptor expressed in CHO-K1 cells by [35S]GTPgammaS binding assay relative to dopamine; assay type: functional, cell-based
D(3) dopamine receptor [17] = target: T1, D(3) dopamine receptor; experiment: Antagonist activity at human dopamine D3 receptor expressed in CHO-K1 cells assessed as reduction in dopamine-induced response by [35S]GTPgammaS binding assay relative to control; assay type: functional, cell-based; conditions: concentration not given here
[18] = target: T4, 5-hydroxytryptamine receptor 1A (Homo sapiens) (UniProt P08908); experiment: Agonist activity at human 5HT1A receptor (unknown origin) expressed in CHO cells by [35S]GTPgammaS binding assay relative to 5-HT; assay type: functional, cell-based
T4 sequence (whole entry): T2 sequence (P08908 whole entry)

[19] = target: T4, 5-hydroxytryptamine receptor 1A (Homo sapiens); experiment: Antagonist activity at human 5HT1A receptor (unknown origin) expressed in CHO cells reduction in 5-HT-induced response by [35S]GTPgammaS binding assay; assay type: functional, cell-based; conditions: concentration not given here
[20] = target: 5-hydroxytryptamine receptor 2A (Rattus norvegicus) (UniProt P14842); experiment: Antagonist activity at 5HT2A receptor in rat aortic rings assessed as reduction in 5-HT-induced contraction relative to control; conditions: concentration not given here
5-hydroxytryptamine receptor 2A (Rattus norvegicus), sequence (P14842 whole entry): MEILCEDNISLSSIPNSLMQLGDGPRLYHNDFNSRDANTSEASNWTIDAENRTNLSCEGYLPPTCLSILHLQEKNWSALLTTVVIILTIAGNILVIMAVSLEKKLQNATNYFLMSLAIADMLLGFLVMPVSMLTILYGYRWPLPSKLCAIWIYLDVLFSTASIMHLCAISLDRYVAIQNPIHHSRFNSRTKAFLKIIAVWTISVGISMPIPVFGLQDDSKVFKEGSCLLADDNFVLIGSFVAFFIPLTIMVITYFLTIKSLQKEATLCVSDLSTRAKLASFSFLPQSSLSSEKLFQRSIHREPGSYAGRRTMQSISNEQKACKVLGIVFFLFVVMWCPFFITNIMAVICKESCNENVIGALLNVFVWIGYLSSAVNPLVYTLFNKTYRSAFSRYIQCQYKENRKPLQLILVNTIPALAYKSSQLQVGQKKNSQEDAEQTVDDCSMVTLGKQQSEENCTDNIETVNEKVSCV

Rattus norvegicus [21] = experiment: Induction of c-Fos in ip dosed rat nucleus accumbens; assay type: functional, organism-based
Rattus norvegicus [22] = experiment: Induction of c-Fos in rat nucleus accumbens shell region at 3 to 30 mg/kg, ip; assay type: functional, organism-based
Rattus norvegicus [23] = experiment: Induction of c-Fos in rat nucleus accumbens core region at 10 mg/kg, ip; assay type: functional, organism-based; parameters: dose 10 mg/kg
Rattus norvegicus [24] = experiment: Induction of c-Fos in rat nucleus accumbens core region at 30 mg/kg, ip; assay type: functional, organism-based; parameters: dose 30 mg/kg
Rattus norvegicus [25] = experiment: Induction of c-Fos in rat dorsolateral striatum region at 30 mg/kg, ip; assay type: functional, organism-based; parameters: dose 30 mg/kg
Mus musculus [26] = experiment: Anti-psychotic activity in mouse assessed as amelioration of PCP-induced disruption of prepulse inhibition at 3 mg/kg, po; assay type: functional, organism-based; parameters: dose 3 mg/kg
Mus musculus [27] = experiment: Anti-psychotic activity in mouse assessed as amelioration of PCP-induced disruption of prepulse inhibition at 30 mg/kg, po; assay type: functional, organism-based; parameters: dose 30 mg/kg
Mus musculus [28] = experiment: Increase in prepulse inhibition in mouse at 30 mg/kg, po dosed 30 mins before testing; assay type: functional, organism-based; parameters: dose 30 mg/kg
Mus musculus [29] = experiment: Anxiolytic activity in orally dosed mouse dosed 30 mins before test by marble burying method; assay type: functional, organism-based
Rattus norvegicus [30] = experiment: Increase in dopamine release in Wistar rat medial prefrontal cortex at 10 mg/kg, sc measured for 90 mins administered as single dose by microdialysis method; assay type: functional, organism-based; parameters: dose 10 mg/kg
Rattus norvegicus [31] = experiment: Increase in dopamine release in Wistar rat nucleus accumbens at 10 mg/kg, sc measured during 0 to 90 mins administered as single dose by microdialysis method; assay type: functional, organism-based; parameters: dose 10 mg/kg
Mus musculus [32] = experiment: Toxicity in NMRI mouse assessed as induction of tremors at 10 mg/kg, sc dosed 30 mins before test; assay type: organism-based; parameters: dose 10 mg/kg, route subcutaneous; conditions: in vivo, 0.5 h

D(2) dopamine receptor, sequence (P14416 whole entry): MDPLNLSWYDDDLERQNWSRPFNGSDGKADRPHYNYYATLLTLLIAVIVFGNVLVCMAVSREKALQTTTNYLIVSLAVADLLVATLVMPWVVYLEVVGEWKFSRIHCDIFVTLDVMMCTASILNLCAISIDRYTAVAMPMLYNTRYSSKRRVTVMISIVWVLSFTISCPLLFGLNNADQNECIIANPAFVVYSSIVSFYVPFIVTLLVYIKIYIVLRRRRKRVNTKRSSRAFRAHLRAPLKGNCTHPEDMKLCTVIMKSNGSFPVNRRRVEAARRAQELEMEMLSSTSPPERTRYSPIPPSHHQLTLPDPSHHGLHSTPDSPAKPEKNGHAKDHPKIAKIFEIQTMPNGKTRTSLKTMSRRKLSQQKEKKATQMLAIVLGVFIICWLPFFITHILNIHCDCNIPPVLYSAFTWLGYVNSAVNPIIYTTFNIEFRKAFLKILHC
5-hydroxytryptamine receptor 2A, sequence (P28223 whole entry): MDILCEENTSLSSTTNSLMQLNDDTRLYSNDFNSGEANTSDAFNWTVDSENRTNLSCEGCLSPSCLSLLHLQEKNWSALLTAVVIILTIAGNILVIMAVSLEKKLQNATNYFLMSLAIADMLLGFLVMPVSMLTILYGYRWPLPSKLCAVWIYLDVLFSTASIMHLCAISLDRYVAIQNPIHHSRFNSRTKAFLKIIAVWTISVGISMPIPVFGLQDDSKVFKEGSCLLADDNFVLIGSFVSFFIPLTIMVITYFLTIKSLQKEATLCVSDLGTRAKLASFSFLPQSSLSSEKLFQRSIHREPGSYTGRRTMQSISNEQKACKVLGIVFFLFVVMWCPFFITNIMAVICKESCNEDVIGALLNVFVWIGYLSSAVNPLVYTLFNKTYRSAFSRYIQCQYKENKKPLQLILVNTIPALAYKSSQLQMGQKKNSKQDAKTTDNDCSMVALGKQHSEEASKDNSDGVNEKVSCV

Structure (SMILES) | Ki (D(2) dopamine receptor) | Ki [1] | minimal effective dose (Mus musculus [2]) | Ki (D(3) dopamine receptor [4]) | Ki [5] | Ki [6] | MED (Mus musculus [7]) | minimal effective dose (Mus musculus [8]) | minimal effective dose (Mus musculus [9]) | also measured
Cc1cccc(N2CCN(CCCCNC(=O)c3cc4ccccc4cn3)CC2)c1 | 286 nM | 15 nM | 3 mg/kg | 5 nM | 8 nM | 169 nM | <= 3 mg kg-1 | ≤ 3 mg/kg | – | Activity (Mus musculus [3]): Non-toxic
O=C(NCCCCN1CCN(c2ccccc2)CC1)c1cc2ccccc2cn1 | > 1000 nM | 40 nM | 3 mg/kg | 12 nM | 26 nM | > 1000 nM | 10 mg/kg | ≤ 1 mg/kg | 3 mg/kg | –
O=C(NCCCCN1CCN(c2ccc(F)cc2)CC1)c1cc2ccccc2cn1 | > 1000 nM | 8 nM | – | 16 nM | 73 nM | 300 nM | – | – | – | MED (Mus musculus [10]): 60 mg/kg; minimal effective dose (Mus musculus [11]): 60 mg/kg
COc1cccc(N2CCN(CCCCNC(=O)c3cc4ccccc4cn3)CC2)c1 | > 1000 nM | 33 nM | 10 mg/kg | 9.4 nM | 7.9 nM | 190 nM | 10 mg/kg | ≤ 1 mg/kg | 10 mg/kg | Activity (Mus musculus [12]): Toxic
Cc1cccc(N2CCN(CCCCNC(=O)c3ccc4ccccc4n3)CC2)c1 | > 1000 nM | 17 nM | 10 mg/kg | 53 nM | 18 nM | 74 nM | 10 mg/kg | ≤ 1 mg/kg | > 10 mg/kg | Activity (Mus musculus [13]): Toxic
O=C(NCCCCN1CCN(c2ccccc2)CC1)c1ccc2ncccc2c1 | – | – | – | – | – | – | – | – | – | Activity (Rattus norvegicus [14]): Active; Activity (Rattus norvegicus [15]): Active; Activity (D(3) dopamine receptor [16]): 21%; inhibition (D(3) dopamine receptor [17]): 69%; Activity [18]: 66%; inhibition [19]: 19%; inhibition [20]: 94%; Activity (Rattus norvegicus [21]): Dose-dependent effect; Activity (Rattus norvegicus [22]): Active; Activity (Rattus norvegicus [23]): inactive; Activity (Rattus norvegicus [24]): Active; Activity (Rattus norvegicus [25]): Active; Activity (Mus musculus [26]): Active; Activity (Mus musculus [27]): inactive; Activity (Mus musculus [28]): Active; Activity (Mus musculus [29]): Dose-dependent effect; Activity (Rattus norvegicus [30]): Active; Activity (Rattus norvegicus [31]): inactive
O=C(NCCCCN1CCN(c2ccccc2)CC1)c1cc2ccccc2o1 | > 1000 nM | 392 nM | 3 mg/kg | 4 nM | 30 nM | > 1000 nM | <= 0.3 mg kg-1 | ≤ 1 mg/kg | ≤ 0.3 mg/kg | Activity (Mus musculus [32]): Toxic
O=C(NCCCCN1CCN(c2ccccc2)CC1)c1ccccn1 | > 1000 nM | 100 nM | – | 144 nM | 52 nM | > 1000 nM | 3 mg/kg | 1 mg/kg | > 3 mg/kg | –
Cc1cccc(N2CCN(CCCCNC(=O)c3ccccc3)CC2)n1 | > 1000 nM | 83 nM | – | 73 nM | 3 nM | > 1000 nM | > 3 mg/kg | 1 mg/kg | > 3 mg/kg | –
Cc1cccc(N2CCN(CCCCNC(=O)c3cc4ccccc4o3)CC2)c1C | 85 nM | 3.6 nM | 30 mg/kg | 0.4 nM | 4 nM | 17 nM | – | – | – | Activity (Mus musculus [13]): Toxic
COc1cccc(N2CCN(CCCCNC(=O)c3ccccc3)CC2)n1 | > 1000 nM | 110 nM | 3 mg/kg | 55 nM | 6 nM | > 1000 nM | 10 mg/kg | 0.3 mg/kg | 10 mg/kg | –

From ChEMBL document CHEMBL3351528, “Targeting dopamine D3 and serotonin 5-HT1A and 5-HT2A receptors for developing effective antipsychotics: synthesis, biological characterization, and behavioral studies” (J Med Chem, 2014)
